Source: patent publication US11793849B2, “Method of Chinese herbal medicine extract used for treating multiple diseases caused by drug resistant bacteria infection” (priority 2016, dated 2023)
Read-outs that look alike come from different tables or passages of the source.

Key:
ESBL-producing ECO [1] = assay: Checkerboard assay (combined-use MIC, FIC); assay type: cell-based, Escherichia coli; details: 20 ESBL-producing ECOs
Method: Test methods of the sensibilization effects of the test product to similar antibiotics: it is operated by referring to a checkerboard assay recommended by NCCLS.
The checkerboard assay is performed in a 96-pore sterile culture plate.
Calculation of a Fractional Inhibitory Concentration (FIC): FIC=S20b combined-use MIC/S20b single-use MIC+antibiotic combined-use MIC/antibiotic single-use MIC. By calculating the FIC, the combined antibacterial interaction between the EA and the antibiotic is evaluated, with synergistic effect for FIC≤0.5, additive effect for 0.5<FIC≤1, indifferent effect for 1<FIC≤2 and antagonistic effect for FIC>2. According to a sterile growth pore, the optimum concentration ratio between the EA and the antibiotic is founded out. At last, the effect of the EA to strengthen the efficacy of the antibiotic is evaluated.

ESBL-producing ECO [2] = assay: MIC determination, microdilution broth method; assay type: cell-based, Escherichia coli
Method: Determination methods of a Minimal Inhibitory Concentration (MIC) and a Minimum Bactericidal Concentration (MBC) of a test product: the MIC and the MBC of the Pithecellobium clypearia Benth water or ethanol extract to the MDRAB are determined by a microdilution broth method. And it is operated by referring to the microdilution broth method recommended by National Committee for Clinical Laboratory Standards (NCCLS).
By determining the MIC and the MBC of the drug and making statistics of the data to obtain MIC50, MIC90, MBC50 and MBC90, the effect of the MDRA resistance of the drug is evaluated.

ATCC25922 [3] = assay: MIC determination, control strain ATCC25922; assay type: cell-based; details: EA = 95% ethanol extract
ATCC25922 [4] = assay: MIC determination, control strain; assay type: cell-based
[5] = antibiotic with 10% ethanol extract
[6] = antibiotic with 60% ethanol extract
[7] = antibiotic with 95% ethanol extract
[8] = EA = 10% ethanol extract, 20 ESBL-producing ECO strains
[9] = EA = 60% ethanol extract, 20 ESBL-producing ECO strains
[10] = EA = 95% ethanol extract, ESBL-producing ECOs
[11] = EA = water extract, 20 ESBL-producing ECO strains
[12] = single use, 20 ESBL-producing ECOs, section of the 10% ethanol extract
[13] = single use, 20 ESBL-producing ECOs, section of the 60% ethanol extract
[14] = single use, 20 ESBL-producing ECOs, section of the 95% ethanol extract

NCC[C@H](O)C(=O)N[C@@H]1C[C@H](N)[C@@H](O[C@H]2O[C@H](CN)[C@@H](O)[C@H](O)[C@H]2O)[C@H](O)[C@H]1O[C@H]1O[C@H](CO)[C@@H](O)[C@H](N)[C@H]1O [AMK, Amikacin]
8 µg/mL: MIC90 of the antibiotic after combined use (ESBL-producing ECO [1]; [6])
4 µg/mL: MIC50 of the antibiotic after combined use (ESBL-producing ECO [1]; [5]) | MIC50 of the antibiotic after combined use (ESBL-producing ECO [1]; [6]) | MIC50 of the antibiotic after combined use (ESBL-producing ECO [1]; [7]) | MIC50 of the antibiotic after combined use (ESBL-producing ECO [1]; antibiotic with water extract) | MIC (ATCC25922 [3]) | MIC (ATCC25922 [4]; EA = 10% ethanol extract) | MIC (ATCC25922 [4]; EA = 60% ethanol extract) | MIC (ATCC25922 [4]; EA = water extract, read-out: MIC)
128 µg/mL: MIC (ESBL-producing ECO [2]; Escherichia coli)
50%: share of strains with FIC ≤ 0.5 (ESBL-producing ECO [1]; [5]) | share of strains with FIC ≤ 0.5 (ESBL-producing ECO [1]; [7]) | share of strains with FIC ≤ 0.5 (ESBL-producing ECO [1]; antibiotic with water extract)
4 to 512 µg/mL: MIC Range (ESBL-producing ECO [2]; [8]) | MIC Range (ESBL-producing ECO [2]; [9]) | MIC Range (ESBL-producing ECO [2]; [10]) | MIC Range (ESBL-producing ECO [2]; [11])
75%: reduction of the antibiotic's MIC50 vs single use (ESBL-producing ECO [1]; [5]) | reduction of the antibiotic's MIC90 vs single use (ESBL-producing ECO [1]; [5]) | reduction of the antibiotic's MIC50 vs single use (ESBL-producing ECO [1]; [6]) | reduction of the antibiotic's MIC50 vs single use (ESBL-producing ECO [1]; [7]) | reduction of the antibiotic's MIC90 vs single use (ESBL-producing ECO [1]; [7]) | reduction of the antibiotic's MIC50 vs single use (ESBL-producing ECO [1]; antibiotic with water extract) | reduction of the antibiotic's MIC90 vs single use (ESBL-producing ECO [1]; antibiotic with water extract)
≤ 2: FIC, all strains (ESBL-producing ECO [1]; [5]) | FIC, all strains (ESBL-producing ECO [1]; [6]) | FIC, all strains (ESBL-producing ECO [1]; [7]) | FIC, all strains (ESBL-producing ECO [1]; antibiotic with water extract)
70%: share of strains with FIC ≤ 0.5 (ESBL-producing ECO [1]; [6])
64 µg/mL: MIC90 (ESBL-producing ECO [2]; [8]) | MIC90 (ESBL-producing ECO [2]; [9]) | MIC90 (ESBL-producing ECO [2]; [10]) | MIC90 (ESBL-producing ECO [2]; [11]) | MIC90 (ESBL-producing ECO [2]; Escherichia coli, single use, 20 ESBL-producing ECOs, section of the water extract, read-out: MIC90) | MIC90 (ESBL-producing ECO [2]; [12]) | MIC90 (ESBL-producing ECO [2]; [13]) | MIC90 (ESBL-producing ECO [2]; [14])
16 µg/mL: MIC90 of the antibiotic after combined use (ESBL-producing ECO [1]; [5]) | MIC90 of the antibiotic after combined use (ESBL-producing ECO [1]; [7]) | MIC90 of the antibiotic after combined use (ESBL-producing ECO [1]; antibiotic with water extract) | MIC50 (ESBL-producing ECO [2]; [8]) | MIC50 (ESBL-producing ECO [2]; [9]) | MIC50 (ESBL-producing ECO [2]; [10]) | MIC50 (ESBL-producing ECO [2]; [11]) | MIC50 (ESBL-producing ECO [2]; Escherichia coli, single use, 20 ESBL-producing ECOs, section of the water extract, read-out: MIC50) | MIC50 (ESBL-producing ECO [2]; [12]) | MIC50 (ESBL-producing ECO [2]; [13]) | MIC50 (ESBL-producing ECO [2]; [14])
